Measured values from article PMC3409115, “Diverse Inhibitor Chemotypes Targeting Trypanosoma cruzi CYP51” (PLoS Neglected Tropical Diseases, 2012).

Molecular target: T1, T. cruzi CYP51 (Trypanosoma cruzi, UniProt Q7Z1V1)
T1 construct: had the first 21 residues upstream of K22 replaced with the fragment MAKKKKK; His6 (C); made in house
Experiment: HTS spectral-mode binding screen, type II difference spectra scored 0-5
Details: spectral mode, four serial dilutions 2 µM to 12.5 µM, 2 µM CYP51

T1 sequence (Q7Z1V1 15-481, looked up, natural form): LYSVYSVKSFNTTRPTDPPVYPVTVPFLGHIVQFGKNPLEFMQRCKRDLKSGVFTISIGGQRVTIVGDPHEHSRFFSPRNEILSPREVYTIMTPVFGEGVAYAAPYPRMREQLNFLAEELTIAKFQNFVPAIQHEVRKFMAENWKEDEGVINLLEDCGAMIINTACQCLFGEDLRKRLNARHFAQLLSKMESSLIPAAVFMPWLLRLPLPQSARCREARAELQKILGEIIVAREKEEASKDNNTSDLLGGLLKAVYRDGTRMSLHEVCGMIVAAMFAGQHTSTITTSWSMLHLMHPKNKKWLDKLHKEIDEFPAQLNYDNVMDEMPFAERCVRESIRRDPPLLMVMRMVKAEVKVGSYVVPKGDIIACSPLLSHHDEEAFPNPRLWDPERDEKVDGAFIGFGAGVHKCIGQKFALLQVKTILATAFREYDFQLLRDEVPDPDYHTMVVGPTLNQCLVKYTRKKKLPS

SMILES	HTS binding score
OC1=C2C(=Nc3nc(-c4cccnc4)nn3C2c2ccc(Cl)cc2)CCC1 (stereo not drawn) [Compound 128]	4
CC1=C(C(=O)OC2CCCC2)C(c2ccncc2)C2=C(O)CC(C)(C)CC2=N1 (stereo not drawn) [Compound 129]	4
O=C1C2(c3ccccc3)CN3CC1(c1ccccc1)CN(C2)C3c1cccnc1 (stereo not drawn) [Compound 130]	4
O=C1C(c2ccncc2)N(CCC2=CCCCC2)C(=O)CN1C1CCCCC1 (stereo not drawn) [Compound 131]	4
COc1ccc(CNc2nc3ccccc3c3nc(-c4ccncc4)nn23)cc1 [Compound 132]	5
COc1ccc(-c2nc(CSCC(=O)NCc3cccnc3)c(C)o2)cc1 [Compound 133]	4
Cn1c(SCc2nc(-c3ccc(Cl)cc3)no2)nnc1-c1ccncc1 [Compound 134]	5
O=C(Nc1ccncc1)c1ccc(NS(=O)(=O)c2cccc(Cl)c2)cc1 [Compound 135]	4
CCO/C(O)=C1/C(C)=NC2=C(C(=O)CC(c3ccccc3)C2)C1c1cccnc1 (stereo not drawn) [Compound 136]	4
COc1ccc(-c2cc(C(F)(F)F)nc(NCc3cccnc3)n2)cc1OC [Compound 137]	4
O=P(Nc1cccnc1)(Oc1ccccc1Cl)Oc1ccccc1Cl [Compound 138]	5
O=C(CN(Cc1ccccc1)S(=O)(=O)c1ccccc1)NCc1ccncc1 [Compound 139]	5
Cc1n[nH]c(C)c1CCc1nc2c3ccccc3nc(NCc3cccnc3)n2n1 [Compound 140]	5
O=C(CCCCCN1C(=O)c2cccc3cccc(c23)C1=O)NCc1cccnc1 [Compound 141]	4
O=S(=O)(Nc1ccc(Cc2ccncc2)cc1)c1ccc(Br)cc1 [Compound 142]	4
O=C(NCc1cccnc1)c1cc2nc(-c3ccco3)cc(C(F)(F)Cl)n2n1 [Compound 143]	5
CC(C)c1nnc(N2C(=O)c3oc4ccccc4c(=O)c3C2c2cccnc2)s1 (stereo not drawn) [Compound 144]	4
O=C(Cn1nc(-c2ccc(Cl)cc2)c2ccccc2c1=O)NCc1cccnc1 [Compound 145]	4
CCOC(=O)c1cc(-c2ccc(C)cc2)n(CCC(=O)NCc2cccnc2)c1C [Compound 146]	5

SMILES	HTS binding score
COc1ccc(S(=O)(=O)NC(C)c2ccc(-n3ccnc3)cc2)c2ccccc12 (stereo not drawn) [Compound 147]	4
CC(NC(=O)C12CC3CC(C1)CC(n1cncn1)(C3)C2)C12CC3CC(CC(C3)C1)C2 (stereo not drawn) [Compound 148]	4
O=S(=O)(NCc1csc(-c2cccnc2)n1)c1ccc(Br)cc1 [Compound 149]	5
O=C(CSc1nc(-c2cccs2)cc(C(F)(F)F)n1)NCc1ccncc1 [Compound 150]	4
O=C(c1ccc(Cl)cc1Cl)C(c1cccnc1)C(O)C(Cl)(Cl)Cl (stereo not drawn) [Compound 151]	5
Cc1ccc2nc(NC(=O)C3CCN(S(=O)(=O)c4cccnc4)CC3)sc2c1 [Compound 152]	4
Cc1coc(NC(=O)c2sc3nc(-c4ccncc4)cc(C(F)(F)F)c3c2N)n1 [Compound 153]	4
COc1ccc(CNc2nc(-c3cccnc3)nn2S(=O)(=O)c2ccccc2)cc1 [Compound 154]	4
O=C(CSc1nc(-c2ccc(F)cc2)cc(C(F)(F)F)n1)NCc1ccncc1 [Compound 155]	4
O=C(CCCSc1nc(-c2ccco2)cc(C(F)(F)F)n1)NCc1ccncc1 [Compound 156]	4
Cc1c(C(=O)N2CCCCC2c2cccnc2)sc2nc3n(c(=O)c12)CCCCC3 (stereo not drawn) [Compound 157]	4
N#CC1=C(N)Oc2nc(SCc3ccc(Cl)cc3)nc(N)c2C1c1cccnc1 (stereo not drawn) [Compound 158]	4
CC1=C(C(=O)Nc2ccc(F)cc2F)C(c2cccnc2)C2=C(O)CC(C)(C)CC2=N1 (stereo not drawn) [Compound 159]	4
CC1=C(C(=O)Nc2cccnc2)C(c2ccc(Cl)cc2)n2nc(CCCO)nc2N1 (stereo not drawn) [Compound 160]	4
Cn1c(=O)c2c(nc(NCc3cccnc3)n2Cc2cccc3ccccc23)n(C)c1=O [Compound 161]	4
COc1cc(OC)cc(-c2nc3n(n2)C(c2ccncc2)C2=C(O)CC(C)(C)CC2=N3)c1 (stereo not drawn) [Compound 162]	4
COc1cc(OC)cc(-c2cc3nc(C)c(CCC(=O)Nc4cccnc4)c(C)n3n2)c1 [Compound 163]	4
CC1Cc2cc(C(=O)C3=C(O)C(=O)N(Cc4cccnc4)C3c3cccs3)ccc2O1 (stereo not drawn) [Compound 164]	4
CCOC(=O)c1c(C)n(-c2ccc(C)cc2)c2ccc(OCC(O)Cn3ccnc3)cc12 (stereo not drawn) [Compound 165]	4

SMILES	HTS binding score
COc1ccc(NC(=O)C2=C(C)Nc3nc(-c4ccccc4)nn3C2c2ccncc2)cc1 (stereo not drawn) [Compound 166]	5
O=C(c1ccncc1)N(c1ccc2oc3c(c2c1)CCCC3)S(=O)(=O)c1cccs1 [Compound 167]	4
Cc1sc(NC(=O)c2ccco2)c(C(c2cccnc2)N2CCN(CCO)CC2)c1C (stereo not drawn) [Compound 168]	4
COc1cccc(C2C(C(=O)Nc3cccnc3)=C(C)Nc3nc(-c4cccs4)nn32)c1 (stereo not drawn) [Compound 169]	4
COc1ccc(-c2nc3n(n2)C(c2cccs2)C(C(=O)Nc2cccnc2)=C(C)N3)cc1 (stereo not drawn) [Compound 170]	4
COc1cc(OC)cc(-c2cc3nc(C)c(CCC(=O)NCc4cccnc4)c(C)n3n2)c1 [Compound 171]	5
Cc1ccc(S(=O)(=O)N(CC(=O)Nc2cccnc2)c2cccc(C(F)(F)F)c2)cc1 [Compound 172]	4
O=C(CN(c1ccc(Cl)cc1Cl)S(=O)(=O)c1ccccc1)NCc1ccncc1 [Compound 173]	4
COc1ccc(-c2noc(CSc3nnc(-c4ccncc4)n3CC(C)C)n2)cc1OC [Compound 174]	4
COC(=O)C1=C(N)Oc2cc(C)n(CCCn3ccnc3)c(=O)c2C1c1ccc(Cl)cc1 (stereo not drawn) [Compound 175]	4
CC(C)(C)NC(=O)c1cccc(NC(=O)c2ccc3c(c2)C(=O)N(Cc2cccnc2)C3=O)c1 [Compound 176]	4
COc1cc(NS(=O)(=O)c2ccc(Nc3nc(-c4cccnc4)cs3)cc2)nc(OC)n1 [Compound 177]	4
O=C(NCc1cccnc1)/C(=C\c1cccc(Oc2ccccc2)c1)S(=O)(=O)c1ccccc1 [Compound 178]	4
CC1=C(C(=O)Nc2cccnc2)C(c2cccc(O)c2)n2nc(SCc3ccccc3)nc2N1 (stereo not drawn) [Compound 179]	4
Cc1ccc(S(=O)(=O)N(CC(=O)NCc2cccnc2)c2cccc(Br)c2)cc1 [Compound 180]	4
C=CCOc1ccc(C2c3c(-c4ccccc4O)n[nH]c3C(=O)N2Cc2ccncc2)cc1OCC (stereo not drawn) [Compound 181]	5
COc1cccc(C2C(C(=O)Nc3cccnc3)=C(C)Nc3nc(-c4cccc(C)c4)nn32)c1OC (stereo not drawn) [Compound 182]	4
CC1=C(C(=O)Nc2ccccc2)C(c2cccnc2)C(C#N)=C(SCC(=O)Nc2ccc(F)cc2)N1 (stereo not drawn) [Compound 184]	5
COc1cc2c(cc1OC)C(C(=O)N1CCC(Cc3ccccc3)CC1)C(c1cccnc1)N(C)C2=O (stereo not drawn) [Compound 185]	4
